From PubChem BioAssay (NCI)
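Method: 48-hour compound exposure of cells in 96-well plates, five concentrations, linear interpolation of endpoints. Here, GI50 denotes the concentration required for 50% inhibition of growth. TGI: total growth inhibition.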

Experiments:
Assay in all cases: DTP human tumour cell line panel, 48 h
SF-268 CNS = test system: SF-268 CNS
CAKI-1 renal = test system: CAKI-1 renal
OVCAR-8 ovarian = test system: OVCAR-8 ovarian
M14 melanoma = test system: M14 melanoma
T-47D breast = test system: T-47D breast
RPMI-8226 leukemia = test system: RPMI-8226 leukemia
COLO 205 colon = test system: COLO 205 colon
NCI/ADR-RES ovarian = test system: NCI/ADR-RES ovarian
LOX IMVI melanoma = test system: LOX IMVI melanoma
IGROV1 ovarian = test system: IGROV1 ovarian
HCT-116 colon = test system: HCT-116 colon
UACC-62 melanoma = test system: UACC-62 melanoma
U251 CNS = test system: U251 CNS
TK-10 renal = test system: TK-10 renal
UO-31 renal = test system: UO-31 renal
ACHN renal = test system: ACHN renal
PC-3 prostate = test system: PC-3 prostate
786-0 renal = test system: 786-0 renal
SF-295 CNS = test system: SF-295 CNS
OVCAR-3 ovarian = test system: OVCAR-3 ovarian
HOP-62 NSCLC = test system: HOP-62 NSCLC
SK-MEL-28 melanoma = test system: SK-MEL-28 melanoma
SN12C renal = test system: SN12C renal
HL-60(TB) leukemia = test system: HL-60(TB) leukemia
OVCAR-4 ovarian = test system: OVCAR-4 ovarian
MOLT-4 leukemia = test system: MOLT-4 leukemia
EKVX NSCLC = test system: EKVX NSCLC
SK-MEL-2 melanoma = test system: SK-MEL-2 melanoma
HS 578T breast = test system: HS 578T breast
DU-145 prostate = test system: DU-145 prostate
SW-620 colon = test system: SW-620 colon
MCF7 breast = test system: MCF7 breast
SR leukemia = test system: SR leukemia
OVCAR-5 ovarian = test system: OVCAR-5 ovarian
RXF 393 renal = test system: RXF 393 renal
MALME-3M melanoma = test system: MALME-3M melanoma
SK-OV-3 ovarian = test system: SK-OV-3 ovarian
SNB-19 CNS = test system: SNB-19 CNS
A498 renal = test system: A498 renal
NCI-H23 lung = test system: NCI-H23 lung
HCT-15 colon = test system: HCT-15 colon
MDA-MB-435 = test system: MDA-MB-435
KM12 colon = test system: KM12 colon
K-562 leukemia = test system: K-562 leukemia
SNB-75 CNS = test system: SNB-75 CNS
SF-539 CNS = test system: SF-539 CNS
HOP-92 NSCLC = test system: HOP-92 NSCLC
NCI-H460 lung = test system: NCI-H460 lung
BT-549 breast = test system: BT-549 breast
NCI-H226 lung = test system: NCI-H226 lung
MDA-MB-231 breast = test system: MDA-MB-231 breast
A549 NSCLC = test system: A549 NSCLC
HT29 colon = test system: HT29 colon
SK-MEL-5 melanoma = test system: SK-MEL-5 melanoma
CCRF-CEM leukemia = test system: CCRF-CEM leukemia
UACC-257 melanoma = test system: UACC-257 melanoma

## CCC(=O)[C@H](C)[C@@H](OC(=O)[C@H](C)CC)[C@H](C)[C@H]1OC(CC)=C(C)C(=O)[C@@H]1C
SF-268 CNS
  GI50: 25.3 µM
  TGI: > 100 µM
CAKI-1 renal
  GI50: 21.2 µM
  TGI: 52 µM
OVCAR-8 ovarian
  GI50: 42.4 µM
  TGI: > 100 µM
M14 melanoma
  GI50: 22.8 µM
  TGI: 72.5 µM
T-47D breast
  GI50: 18.1 µM
  TGI: > 100 µM
RPMI-8226 leukemia
  GI50: 10.1 µM
  TGI: 35.1 µM
COLO 205 colon
  GI50: 14.9 µM
  TGI: 29.3 µM
NCI/ADR-RES ovarian
  GI50: 18.6 µM
  TGI: 55 µM
LOX IMVI melanoma
  GI50: 16.9 µM
  TGI: 30.5 µM
IGROV1 ovarian
  GI50: 17.1 µM
  TGI: 46.7 µM
HCT-116 colon
  GI50: 9.98 µM
  TGI: 72.4 µM
UACC-62 melanoma
  GI50: 13.7 µM
  TGI: 27.7 µM
U251 CNS
  GI50: 17.6 µM
  TGI: 35.8 µM
TK-10 renal
  GI50: 30.7 µM
  TGI: 88.9 µM
UO-31 renal
  GI50: 24 µM
  TGI: 66.6 µM
ACHN renal
  GI50: 30 µM
  TGI: > 100 µM
PC-3 prostate
  GI50: 16.8 µM
  TGI: > 100 µM
786-0 renal
  GI50: 25.5 µM
  TGI: 84.2 µM
SF-295 CNS
  GI50: 21.8 µM
  TGI: 43.7 µM
OVCAR-3 ovarian
  GI50: 17.4 µM
  TGI: 36.8 µM
HOP-62 NSCLC
  GI50: 21.2 µM
  TGI: 48.1 µM
SK-MEL-28 melanoma
  GI50: 21.2 µM
  TGI: 57.4 µM
SN12C renal
  GI50: 15.4 µM
  TGI: 29.8 µM
HL-60(TB) leukemia
  GI50: 15.3 µM
  TGI: 40.3 µM
OVCAR-4 ovarian
  GI50: 29 µM
  TGI: > 100 µM
MOLT-4 leukemia
  GI50: 19.1 µM
  TGI: 53.6 µM
EKVX NSCLC
  GI50: 23.9 µM
  TGI: 73.9 µM
SK-MEL-2 melanoma
  GI50: 24.6 µM
  TGI: 50.2 µM
HS 578T breast
  GI50: 30.3 µM
  TGI: 89.3 µM
DU-145 prostate
  GI50: 23.4 µM
  TGI: 68.4 µM
SW-620 colon
  GI50: 24.7 µM
  TGI: 62.5 µM
MCF7 breast
  GI50: 26.3 µM
  TGI: 89 µM
SR leukemia
  GI50: 13.5 µM
  TGI: 42.3 µM
OVCAR-5 ovarian
  GI50: 15.4 µM
  TGI: 48 µM
RXF 393 renal
  GI50: 21.5 µM
  TGI: 46.4 µM
MALME-3M melanoma
  GI50: 19.9 µM
  TGI: 42.4 µM
SK-OV-3 ovarian
  GI50: 37.1 µM
  TGI: > 100 µM
SNB-19 CNS
  GI50: 42.6 µM
  TGI: > 100 µM
A498 renal
  GI50: 25.2 µM
  TGI: 73 µM
NCI-H23 lung
  GI50: 19.6 µM
  TGI: 92.4 µM
HCT-15 colon
  GI50: 17 µM
  TGI: 42.2 µM
MDA-MB-435
  GI50: 21.5 µM
  TGI: 56.1 µM
KM12 colon
  GI50: 19.5 µM
  TGI: 52.5 µM
K-562 leukemia
  GI50: 39.3 µM
  TGI: > 100 µM
SNB-75 CNS
  GI50: 31.8 µM
  TGI: 80.3 µM
SF-539 CNS
  GI50: 18.1 µM
  TGI: 33.1 µM
HOP-92 NSCLC
  GI50: 23.1 µM
  TGI: 62.1 µM
NCI-H460 lung
  GI50: 15.7 µM
  TGI: 36.2 µM
BT-549 breast
  GI50: 16.6 µM
  TGI: 34.9 µM
NCI-H226 lung
  GI50: 16 µM
  TGI: 31.6 µM
MDA-MB-231 breast
  GI50: 13.3 µM
  TGI: 30.9 µM
A549 NSCLC
  GI50: 30.9 µM
  TGI: > 100 µM
HT29 colon
  GI50: 13.4 µM
  TGI: 32.8 µM
SK-MEL-5 melanoma
  GI50: 15.3 µM
  TGI: 28.8 µM
CCRF-CEM leukemia
  GI50: 19.7 µM
  TGI: 44.8 µM
UACC-257 melanoma
  GI50: 33.2 µM
  TGI: > 100 µM
